Experimental data taken from patent US9944721B2, “Polysialic acid and use for treatment of neurodegenerative and neuroinflammatory diseases” (RHEINISCHE FRIEDRICH-WILHELMS UNIVERSITÄT BONN, priority 2013, dated 2018).

Tests used:
Type in all cases: cell-based
[1] = system: human microglial line derived from induced pluripotent stem cells (expressing Siglec-11); test: MTT cell viability of human microglia treated with sialic acid forms
Description: A human microglial line derived from induced pluripotent stem cells as described in WO 2010/125110 was used to study the effect of sialic acid forms with different chain length. Human microglial cells were cultured on 5 μg/ml poly-L-lysin (PLL, Sigma)-coated dishes in N2-medium containing DMEM/F12 culture medium (Gibco) supplemented with 1% N2 (Invitrogen), 0.48 mM L-glutamine (Gibco) and optionally 100 μg/ml penicillin/streptomycin (Gibco). Cells were cultured with high density and splitted 1:2 when required.
The effect of different length and fractions of oligosialic acids and polysialic acids on the human microglial lines were analyzed by determination of cell viability normalized to the cell number and after treatment with monomeric sialic acid (SA, molecular weight of 0.3 kDa, Nacalai Tesque ING, Japan) and sialic acids consisting of 3 monomers (Tri-SA; molecular weight of 0.9 kDa, Nacalai Tesque ING, Japan) and sialic acids consisting of 6 monomers (Hexa-SA; molecular weight of 1.9 kDa, Nacalai Tesque ING, Japan), PSA with a number of sialic acid monomers between 14 and 26 (PSA-20; low molecular weight of PSA between 4.3 and 8 kDa for >90% of the substance) and PSA with a length between 46 and 110 of sialic acid monomers (PSA-60; medium molecular weight of PSA between 14.2 and 34 kDa for >90% of the substance).
The microglial cells were cultured in medium as described above and treated in culture with the different sialic acid forms.
Cell viability was determined by the MTT (3-(4,5-Dimethylthiazol-2-yl)-2,5-diphenyltetrazolium bromide, Millipore) assay after 24 hours treatment with distinct sialic acid forms with different chain length and normalized to the cell number. The light absorbance of the purple formazan in living cells was determined by a spectrophotometer at a wavelength of 570 nm (Perkin Elmer, Envision Multiplate Reader).

[2] = system: human neurons co-cultured with LPS-pre-activated human microglia; test: LPS-toxin induced microglia-neuron co-culture Parkinson's disease model (neurite length); conditions: 1.5 μM, 48 hours, without PSA-20 0.64+/−0.01, FIG. 9A
Description: Human induced pluripotent stem cell-derived microglia (iPSdM) were obtained from induced pluripotent stem (iPS) cells. The microglial iPSdM line 1 (iPSdM-1) was used in this study generated from the iLB-C-35m-r1 clone (Bonn). iPSdM-1 (here named microglia or microglial cells) were cultured in N2-medium consisting of DMEM/F12 culture medium (Gibco) supplemented with 1% N2 (Invitrogen), 0.48 mM L-glutamine (Gibco) and 100 μg/ml penicillin/streptomycin (Gibco). Human induced pluripotent stem (iPS) cells (Foreskin-1, WiCell) were used for the generation of primitive neural stem cell (pNSC) and their differentiation into neurons according to a modified protocol, which was used to obtain primitive neural precursors from human embryonic stem cells. Briefly, iPS cells were cultured on feeder cells to form small colonies. […]
10 pictures per condition per experiment were taken by confocal laser scanning microscopy (Fluoview 1000, Olympus). Measurement of neuronal branches was done by ImageJ/Neuron J software (NIH) and relative neural branches lengths were quantified. […]

[3] = system: human macrophage cell line THP-1; test: LPS-induced TNF-alpha gene transcription in human macrophages; conditions: THP-1, LPS 1 μg/ml, 24 hours; 0.15 μM and 0.5 μM; FIG. 5B
Description: The human monocyte line THP-1 (ATCC TIB-202) was cultured in RPMI medium with 10% FCS, 1% sodium pyruvate and 1% penicillin/streptomycin (100×) (all Gibco, Invitrogen) in 75 ml cell culture flasks (Sarstedt). For differentiation into tissue macrophages the line was cultured for 3 hours in normal cell culture medium containing 0.5 μM phorbol 12-myristate 13-acetate (Sigma) and afterwards in phorbol 12-myristate 13-acetate free medium for at least 24 hours.
FIG. 5B illustrates the effect of low molecular weight PSA (PSA-20) on the pro-inflammatory cytokine TNF-alpha. The human macrophage cell line THP-1 was treated with lipopolysaccharides (LPS, 1 μg/ml) and PSA-20 (different concentrations) for 24 hours. Gene transcripts for tumor necrosis factor-α a (TNFα) were determined by quantitative RT-PCR and normalized to GAPDH. In detail, RNA isolation was performed using RNeasy Mini Kit (Qiagen) and transcription with the SuperScript First-Strand Synthesis System (Invitrogen). Quantitative RT-PCR with specific oligonucleotides (GAPDH: […] (SEQ ID NO: 1) and […] (SEQ ID NO: 2); TNFα: […] (SEQ ID NO: 3) and […] (SEQ ID NO: 4)) was performed using SYBR green PCR Master Mix with the Mastercycler epgradients S (Eppendorf). Results were normalized to GAPDH. Quantification using the delta-CT method was carried out.

## poly-(α(2→8)Neu5Ac)n [PSA-20]
[1]; 24 hours treatment, 0.15 μM, 0.5 μM and 1.5 μM, FIG. 2B
  metabolic activity of the microglial cells (MTT, normalized to cell number): did not affect the metabolic activity
[1]; summary of Example 3, MTT, 24 hours
  Intact viability of human microglia: Yes
[2]
  relative neurite length: 0.91+/−0.02
[3]
  LPS-induced gene transcription of TNF-alpha: reduced
